Key:
Erysiphe graminis = test: Test for Preventive Effect on Wheat Powdery Mildew; format: in vivo; set-up: key: A: No diseased area; B: Diseased area of less than 25%; C: Diseased area of at least 25% but less than 50%; Diseased area of at least 50%; conditions: wheat seedlings (Norin-61-go), 500 ppm active ingredient, 10 ml per pot, 10 days after inoculation
Experimental: [table] Test for Preventive Effect on Wheat Powdery Mildew 9 wheat seeds (variety: […] Then, the seedlings were inoculated with […] graminis spores in suspension and placed in a greenhouse at 25 to 30° C. 10 days after the inoculation, the total diseases area of the first leaves in each pot was observed and evaluated on the basis of the standards shown in Table 59. The results are shown in Tables 67 to 71.

Venturia inaequalis = test: Test for Preventive Effect on Apple Scab; format: in vivo; set-up: key: A: No diseased area; B: Diseased area of less than 25%; C: Diseased area of at least 25% but less than 50%; Diseased area of at least 50%; conditions: 14 days after inoculation; for Evaluation (diseased area of the upper two inoculated leaves): apple seedlings (Kogyoku), 500 ppm active ingredient, 20 ml per pot; for Evaluation (diseased areas of the upper two of the inoculated leaves): apple seedlings, wettable powder at 500 ppm active ingredient, preventive
Experimental: [table] Test for Preventive Effect on Apple Scab 5 apple seeds (variety: Kogyoku) were sown in each 9 cm×9 cm polyvinyl chloride pot and grown in a greenhouse for 20 days. […] Then, the seedlings were inoculated with Venturia inaequalis spores in suspension by spraying and immediately placed in a moist chamber at 22° C. for 48 hours. Thereafter, the seedlings were placed in a greenhouse for development of the disease. 14 days after the inoculation, the diseased areas of the upper two of the inoculated leaves were observed and evaluated on the basis of the standards shown in Table 59.

## CCC(NC(=O)OC)c1cccc(-c2ccccc2)c1 (racemic) [3-101]
Erysiphe graminis
  Evaluation (total diseased area of the first leaves in each pot): B (Diseased area of less than 25%)

## COC(=O)NC(C)c1cccc(-c2ccc(Cl)cc2Cl)c1 (racemic) [3-18]
Venturia inaequalis
  Evaluation (diseased area of the upper two inoculated leaves): A
Erysiphe graminis
  Evaluation (total diseased area of the first leaves in each pot): A

## COC(=O)NCc1cccc(-c2ccc(F)c(Cl)c2)c1 [1-122]
Venturia inaequalis
  Evaluation (diseased areas of the upper two of the inoculated leaves): A
Erysiphe graminis
  Evaluation (total diseased area of the first leaves in each pot): A

## COC(=O)NC(C)c1cccc(-c2ccc(C(F)(F)F)cc2)c1 (racemic) [3-17]
Venturia inaequalis
  Evaluation (diseased area of the upper two inoculated leaves): A
Erysiphe graminis
  Evaluation (total diseased area of the first leaves in each pot): A

## CCC(NC(=O)OC)c1cccc(-c2ccc(C)cc2)c1 (racemic) [3-107]
Venturia inaequalis
  Evaluation (diseased area of the upper two inoculated leaves): B (Diseased area of less than 25%)
Erysiphe graminis
  Evaluation (total diseased area of the first leaves in each pot): B (Diseased area of less than 25%)

## COC(=O)NCc1cc(C)cc(-c2ccc(C)cc2)c1 [2-97]
Venturia inaequalis
  Evaluation (diseased areas of the upper two of the inoculated leaves): A
Erysiphe graminis
  Evaluation (total diseased area of the first leaves in each pot): A

## CCCCOC(=O)NCc1cccc(-c2ccccc2)c1 [1-148]
Erysiphe graminis
  Evaluation (total diseased area of the first leaves in each pot): B (Diseased area of less than 25%)

## CCc1ccc(-c2ccc(F)c(CNC(=O)OC)c2)cc1 [2-112]
Venturia inaequalis
  Evaluation (diseased areas of the upper two of the inoculated leaves): A
Erysiphe graminis
  Evaluation (total diseased area of the first leaves in each pot): B (Diseased area of less than 25%)

## COC(=O)NC(C)c1cccc(-c2ccc(C)cc2)c1 (racemic) [3-7]
Venturia inaequalis
  Evaluation (diseased area of the upper two inoculated leaves): A
Erysiphe graminis
  Evaluation (total diseased area of the first leaves in each pot): A

## COCN(Cc1cccc(-c2ccc(OC)cc2)c1)C(=O)OC [1-198]
Venturia inaequalis
  Evaluation (diseased areas of the upper two of the inoculated leaves): A
Erysiphe graminis
  Evaluation (total diseased area of the first leaves in each pot): A

## COC(=O)N(Cc1cccc(-c2ccccc2)c1)OC [1-264]
Venturia inaequalis
  Evaluation (diseased areas of the upper two of the inoculated leaves): A
Erysiphe graminis
  Evaluation (total diseased area of the first leaves in each pot): A

## COCN(Cc1cccc(-c2ccccc2)c1)C(=O)OC [1-192, Methyl N-methoxymethyl-N-(3-phenylbenzyl)carbamate]
Venturia inaequalis
  Evaluation (diseased areas of the upper two of the inoculated leaves): A
Erysiphe graminis
  Evaluation (total diseased area of the first leaves in each pot): A

## COC(=O)N(Cc1cccc(-c2cccc(Cl)c2)c1)OC [1-275]
Venturia inaequalis
  Evaluation (diseased areas of the upper two of the inoculated leaves): A
Erysiphe graminis
  Evaluation (total diseased area of the first leaves in each pot): A

## C=CCN(Cc1cccc(-c2ccccc2)c1)C(=O)OC [1-168]
Venturia inaequalis
  Evaluation (diseased areas of the upper two of the inoculated leaves): A
Erysiphe graminis
  Evaluation (total diseased area of the first leaves in each pot): A

## CCC(NC(=O)OC)c1cccc(-c2ccc(Cl)cc2)c1 (racemic) [3-105]
Erysiphe graminis
  Evaluation (total diseased area of the first leaves in each pot): B (Diseased area of less than 25%)

## COC(=O)NC(C)c1cc(-c2ccc(C)cc2)ccc1F (racemic) [3-32]
Venturia inaequalis
  Evaluation (diseased area of the upper two inoculated leaves): B (Diseased area of less than 25%)
Erysiphe graminis
  Evaluation (total diseased area of the first leaves in each pot): B (Diseased area of less than 25%)

## COC(=O)N(Cc1cccc(-c2cccc(C(F)(F)F)c2)c1)OC [1-277]
Venturia inaequalis
  Evaluation (diseased areas of the upper two of the inoculated leaves): A
Erysiphe graminis
  Evaluation (total diseased area of the first leaves in each pot): A

## COC(=O)NCc1cccc(-c2cccc(C(C)C)c2)c1 [1-17]
Venturia inaequalis
  Evaluation (diseased areas of the upper two of the inoculated leaves): A
Erysiphe graminis
  Evaluation (total diseased area of the first leaves in each pot): B (Diseased area of less than 25%)

## COC(=O)NCc1cccc(-c2ccccc2OC)c1 [1-40]
Venturia inaequalis
  Evaluation (diseased areas of the upper two of the inoculated leaves): A
Erysiphe graminis
  Evaluation (total diseased area of the first leaves in each pot): A

## COC(=O)N(Cc1cccc(-c2ccccc2)c1C)OC [4-22, Methyl N-methoxy-N-(2-methyl-3-phenylbenzyl)carbamate]
Venturia inaequalis
  Evaluation (diseased area of the upper two inoculated leaves): A
Erysiphe graminis
  Evaluation (total diseased area of the first leaves in each pot): A

## COCN(Cc1cccc(-c2cccc(C)c2)c1)C(=O)OC [1-194]
Venturia inaequalis
  Evaluation (diseased areas of the upper two of the inoculated leaves): A
Erysiphe graminis
  Evaluation (total diseased area of the first leaves in each pot): A

## COC(=O)NCc1cccc(-c2ccc(C)c([N+](=O)[O-])c2)c1 [1-137]
Venturia inaequalis
  Evaluation (diseased areas of the upper two of the inoculated leaves): A

## COC(=O)NCc1cccc(-c2ccccc2C)c1 [1-10]
Venturia inaequalis
  Evaluation (diseased areas of the upper two of the inoculated leaves): A
Erysiphe graminis
  Evaluation (total diseased area of the first leaves in each pot): A

## COCN(Cc1cccc(-c2ccccc2Cl)c1)C(=O)OC [1-202]
Venturia inaequalis
  Evaluation (diseased areas of the upper two of the inoculated leaves): A
Erysiphe graminis
  Evaluation (total diseased area of the first leaves in each pot): A

## COC(=O)NCc1cccc(-c2ccc(F)c(F)c2)c1 [1-120]
Venturia inaequalis
  Evaluation (diseased areas of the upper two of the inoculated leaves): A
Erysiphe graminis
  Evaluation (total diseased area of the first leaves in each pot): A

## CCc1ccc(-c2cccc(CNC(=O)OC)c2)cc1 [1-14]
Venturia inaequalis
  Evaluation (diseased areas of the upper two of the inoculated leaves): A
Erysiphe graminis
  Evaluation (total diseased area of the first leaves in each pot): B (Diseased area of less than 25%)

## COC(=O)NCc1cc(C)cc(-c2ccc(Cl)cc2)c1 [2-95]
Venturia inaequalis
  Evaluation (diseased areas of the upper two of the inoculated leaves): A
Erysiphe graminis
  Evaluation (total diseased area of the first leaves in each pot): A

## COC(=O)NCc1cc(-c2ccc(F)c(Cl)c2)ccc1Cl [2-465]
Venturia inaequalis
  Evaluation (diseased area of the upper two inoculated leaves): A
Erysiphe graminis
  Evaluation (total diseased area of the first leaves in each pot): A

## COC(=O)NCc1cc(-c2ccc(F)c(F)c2)ccc1Cl [2-461]
Venturia inaequalis
  Evaluation (diseased area of the upper two inoculated leaves): A
Erysiphe graminis
  Evaluation (total diseased area of the first leaves in each pot): A

## COC(=O)NCc1cccc(-c2cccc(F)c2)c1 [1-6]
Venturia inaequalis
  Evaluation (diseased areas of the upper two of the inoculated leaves): A
Erysiphe graminis
  Evaluation (total diseased area of the first leaves in each pot): A

## CCN(Cc1cccc(-c2ccccc2)c1)C(=O)OC [1-165]
Venturia inaequalis
  Evaluation (diseased areas of the upper two of the inoculated leaves): A
Erysiphe graminis
  Evaluation (total diseased area of the first leaves in each pot): B (Diseased area of less than 25%)

## COC(=O)N(C)Cc1cccc(-c2ccccc2)c1 [1-163]
Venturia inaequalis
  Evaluation (diseased areas of the upper two of the inoculated leaves): A
Erysiphe graminis
  Evaluation (total diseased area of the first leaves in each pot): A

## COC(=O)NCc1ccc(F)c(-c2ccccc2)c1 [2-17]
Venturia inaequalis
  Evaluation (diseased areas of the upper two of the inoculated leaves): A
Erysiphe graminis
  Evaluation (total diseased area of the first leaves in each pot): B (Diseased area of less than 25%)

## C#CCN(Cc1cccc(-c2ccccc2)c1)C(=O)OC [1-178, Methyl N-(3-phenylbenzyl)-N-(2-propynyl)carbamate]
Venturia inaequalis
  Evaluation (diseased areas of the upper two of the inoculated leaves): A
Erysiphe graminis
  Evaluation (total diseased area of the first leaves in each pot): A

## CCOC(=O)NCc1cccc(-c2ccccc2)c1 [1-146]
Venturia inaequalis
  Evaluation (diseased areas of the upper two of the inoculated leaves): B (Diseased area of less than 25%)
Erysiphe graminis
  Evaluation (total diseased area of the first leaves in each pot): B (Diseased area of less than 25%)

## COC(=O)NCc1cccc(-c2ccc(C(C)C)cc2)c1 [1-18]
Venturia inaequalis
  Evaluation (diseased areas of the upper two of the inoculated leaves): A
Erysiphe graminis
  Evaluation (total diseased area of the first leaves in each pot): A

## COC(=O)NCc1ccc(F)c(-c2ccc(Cl)cc2)c1 [2-21]
Venturia inaequalis
  Evaluation (diseased areas of the upper two of the inoculated leaves): A
Erysiphe graminis
  Evaluation (total diseased area of the first leaves in each pot): B (Diseased area of less than 25%)

## COC(=O)NCc1ccc(F)c(-c2cccc(C)c2)c1 [2-22]
Venturia inaequalis
  Evaluation (diseased areas of the upper two of the inoculated leaves): A
Erysiphe graminis
  Evaluation (total diseased area of the first leaves in each pot): B (Diseased area of less than 25%)

## COCN(Cc1cccc(-c2ccc(F)cc2)c1)C(=O)OC [1-201]
Venturia inaequalis
  Evaluation (diseased areas of the upper two of the inoculated leaves): A
Erysiphe graminis
  Evaluation (total diseased area of the first leaves in each pot): A

## COC(=O)NCc1cc(-c2ccc(C(C)=O)cc2)ccc1Cl [2-451]
Venturia inaequalis
  Evaluation (diseased area of the upper two inoculated leaves): B (Diseased area of less than 25%)

## CCCN(Cc1cccc(-c2ccccc2)c1)C(=O)OC [1-166]
Venturia inaequalis
  Evaluation (diseased areas of the upper two of the inoculated leaves): B (Diseased area of less than 25%)
Erysiphe graminis
  Evaluation (total diseased area of the first leaves in each pot): B (Diseased area of less than 25%)

## COC(=O)NCc1cccc(-c2ccccc2Cl)c1 [1-2]
Venturia inaequalis
  Evaluation (diseased areas of the upper two of the inoculated leaves): A
Erysiphe graminis
  Evaluation (total diseased area of the first leaves in each pot): A

## COC(=O)NCc1cccc(-c2ccc(Cl)cc2Cl)c1 [1-117]
Venturia inaequalis
  Evaluation (diseased areas of the upper two of the inoculated leaves): A

## CN(C)C(=O)NCc1cccc(-c2ccccc2)c1 [1-262]
Venturia inaequalis
  Evaluation (diseased areas of the upper two of the inoculated leaves): B (Diseased area of less than 25%)

## COCN(Cc1cccc(-c2ccc(C)cc2)c1)C(=O)OC [1-195]
Venturia inaequalis
  Evaluation (diseased areas of the upper two of the inoculated leaves): A
Erysiphe graminis
  Evaluation (total diseased area of the first leaves in each pot): A

## COC(=O)NCc1cc(-c2ccc(C(F)(F)F)cc2)ccc1OC [2-344]
Venturia inaequalis
  Evaluation (diseased area of the upper two inoculated leaves): A

From patent publication US6620961B1, “Biarylalkylenecarbamic acid derivatives and bacteriocides for agricultural and horticultural use” (Kumiai Chemical Industry Co., Ltd., priority 1997, dated 2003)
